System: P12-Ichikawa
Test: cell viability relative to DMSO control; higher = less cytotoxic
Conditions: 48 h
Procedure, shortened: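 Viability values are per-plate percentages of DMSO wells, with background from cell-free wells. Library compounds in DMSO were pin-dosed, in an 11-point threefold series from 47 μM to 0.79 nM, onto NOMO1 or SEM (500 cells/well) or P12-Ichikawa (1000 cells/well) leukemia cells in 1536-well plates (5 μl). Those cells had been adapted for at least four passages in each medium, and CellTiter-Glo One luminescence was read after 48 h at 37°C.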

[1] = HPLM + 10% dialyzed FBS, 0.000781 µM
[2] = HPLM + 10% dialyzed FBS, 0.00234 µM
[3] = HPLM + 10% dialyzed FBS, 0.00702 µM
[4] = HPLM + 10% dialyzed FBS, 0.0211 µM
[5] = HPLM + 10% dialyzed FBS, 0.0632 µM
[6] = HPLM + 10% dialyzed FBS, 0.19 µM
[7] = HPLM + 10% dialyzed FBS, 0.569 µM
[8] = HPLM + 10% dialyzed FBS, 1.71 µM
[9] = HPLM + 10% dialyzed FBS, 5.12 µM
[10] = HPLM + 10% dialyzed FBS, 15.4 µM
[11] = HPLM + 10% dialyzed FBS, 46.1 µM
[12] = RPMI 5 mM glucose + 10% FBS, 0.000781 µM
[13] = RPMI 5 mM glucose + 10% FBS, 0.00234 µM
[14] = RPMI 5 mM glucose + 10% FBS, 0.00702 µM
[15] = RPMI 5 mM glucose + 10% FBS, 0.0211 µM
[16] = RPMI 5 mM glucose + 10% FBS, 0.0632 µM
[17] = RPMI 5 mM glucose + 10% FBS, 0.19 µM
[18] = RPMI 5 mM glucose + 10% FBS, 0.569 µM
[19] = RPMI 5 mM glucose + 10% FBS, 1.71 µM
[20] = RPMI 5 mM glucose + 10% FBS, 5.12 µM
[21] = RPMI 5 mM glucose + 10% FBS, 15.4 µM
[22] = RPMI 5 mM glucose + 10% FBS, 46.1 µM
[23] = RPMI 5 mM glucose + 10% dialyzed FBS, 0.000781 µM
[24] = RPMI 5 mM glucose + 10% dialyzed FBS, 0.00234 µM
[25] = RPMI 5 mM glucose + 10% dialyzed FBS, 0.00702 µM
[26] = RPMI 5 mM glucose + 10% dialyzed FBS, 0.0211 µM
[27] = RPMI 5 mM glucose + 10% dialyzed FBS, 0.0632 µM
[28] = RPMI 5 mM glucose + 10% dialyzed FBS, 0.19 µM
[29] = RPMI 5 mM glucose + 10% dialyzed FBS, 0.569 µM
[30] = RPMI 5 mM glucose + 10% dialyzed FBS, 1.71 µM
[31] = RPMI 5 mM glucose + 10% dialyzed FBS, 5.12 µM
[32] = RPMI 5 mM glucose + 10% dialyzed FBS, 15.4 µM
[33] = RPMI 5 mM glucose + 10% dialyzed FBS, 46.1 µM

Compound	cell viability [1] [%]	cell viability [2] [%]	cell viability [3] [%]	cell viability [4] [%]	cell viability [5] [%]	cell viability [6] [%]	cell viability [7] [%]	cell viability [8] [%]	cell viability [9] [%]	cell viability [10] [%]	cell viability [11] [%]	cell viability [12] [%]	cell viability [13] [%]	cell viability [14] [%]	cell viability [15] [%]	cell viability [16] [%]	cell viability [17] [%]	cell viability [18] [%]	cell viability [19] [%]	cell viability [20] [%]	cell viability [21] [%]	cell viability [22] [%]	cell viability [23] [%]	cell viability [24] [%]	cell viability [25] [%]	cell viability [26] [%]	cell viability [27] [%]	cell viability [28] [%]	cell viability [29] [%]	cell viability [30] [%]	cell viability [31] [%]	cell viability [32] [%]	cell viability [33] [%]
CC(C)[C@@H](N(CCCN)C(=O)C1=CC=C(C)C=C1)C/2=N/C3=CC(=CC=C3C(=O)N2CC4=CC=CC=C4)Cl	97.6	12	10.4	8.9	8.1	8.2	5.86	7.66	5.88	7.47	8.59	96.2	12.6	10.8	11.7	9.51	12	8.85	8.68	7.23	7.78	7.67	88.8	48.5	18.6	14.5	12.8	13.4	11.1	14.6	11.3	11.3	10.9
CCc1cncnc1N1CCN(Cc2nc3cc(C(F)(F)F)ccc3[nH]2)CC1	103	106	100	102	103	102	94.1	97.9	85.7	84	58	101	97.6	95.2	97.2	101	88.8	97.2	101	88.1	74.9	44.9	96.6	105	102	103	95.6	97.3	96.4	101	86.5	84.7	55.3
OC1=CC=C(C=C1)\C2=C\OC3=C(C=CC(=C3)O)C2=O	112	107	105	97.2	110	104	102	99.2	92.7	102	98.1	98.3	90.4	103	99.1	100	87	90.9	89.5	92.9	86.9	89.7	100	96.3	95.4	99.9	97.3	96.7	95.8	98.1	93.1	90.3	88
COc1cc2c(cc1-c1c(C)noc1C)ncc1[nH]c(=O)n([C@H](C)c3ccccn3)c12	107	109	111	111	115	105	103	86.2	44.2	48.9	12.2	107	110	101	111	115	99.2	110	92.1	48.3	48.5	23.1	112	106	109	104	105	105	101	90.2	52.4	48.6	22.4
CN(C)c1ccc(O)c2c1C[C@H]1C[C@H]3[C@H](N(C)C)C(O)=C(C(N)=O)C(=O)[C@@]3(O)C(O)=C1C2=O	109	106	105	97.4	107	110	103	99.9	104	91.2	106	113	110	101	100	112	103	101	95.2	88.5	94.9	93.9	110	116	112	118	118	95.6	86.2	81.7	82.5	92.6	98.8
CN[S+](=O)([O-])Cc1ccc2[nH]cc(CCN(C)C)c2c1	110	122	112	118	123	126	123	123	116	120	126	115	123	125	116	128	119	131	136	125	130	131	106	113	113	122	119	121	128	131	121	127	121
CC1(C)CC(=O)c2c(C(F)(F)F)nn(-c3ccc(C(N)=O)c(NC4CCC(O)CC4)c3)c2C1 (configuration not stated)	90.3	87.3	85.5	82.4	90	67.1	42	33.7	36.1	36.6	80.9	84	93.5	85.6	77.6	82.2	48.2	32.1	25.6	27.6	28.1	84.5	84.2	81.9	81.9	73.1	80.8	44.3	28.7	30.4	25.5	27.8	73.7
COc1ccc(CC2NCCc3cc(OC)c(OC)cc32)cc1OC (configuration not stated)	88.9	96.3	98.2	99.8	95	98.9	97.4	95.5	94	94	96.7	85.5	88.7	89	87.1	83.2	86	90.9	89.2	82.3	92.2	84.8	95	92.9	86.7	87.9	82.1	92.4	85.3	88.2	87.8	91.3	82.4
CC[C@H](CC[C@@H](C)[C@H]1CC[C@H]2[C@@H]3C\C=C/4C[C@@H](O)CC[C@]4(C)[C@H]3CC[C@]12C)C(C)C	117	111	123	119	112	111	111	110	99.4	103	75.9	112	119	120	121	120	118	111	107	106	108	92.2	110	118	110	107	108	110	109	103	103	105	93.1
